Source: patent US20230082968A1, “EXOGENOUS NITRIC OXIDE FOR IMPROVED SUSCEPTIBILITY AND LOWERED ANTIBIOTIC RESISTANCE IN RESISTANT RESPIRATORY BACTERIA” (The University of North Carolina at Chapel Hill, priority 2020, published 2023)
Values after ≈ are worked out from the molar mass of the structure shown.

Legend:
ATCC MRSA = assay: Nitric oxide pretreatment with planktonic bacteria; type: cell-based, Methicillin-resistant S. aureus
Method: (§1) After exposure, wells were serially diluted in sterile MilliQ water and spiral plated on TSA. Viability was assessed by colony counting.

AR 239 biofilm = assay: Biofilm pretreatment with nitric oxide; type: cell-based, P. aeruginosa; settings: tobramycin 5000 µg/mL, NO-pretreatment 4 h
Method: (§2) Bacteria were cultured to a concentration of 10^8 CFU/mL in TSB and diluted to 10^6 CFU/mL in 200 µL TSB in a 96 well plate. Plates were incubated with shaking for 3 days until a non-surface attached viscous aggregate formed that was easily separated from growth medium. Biofilms (100 µL) were removed, gently injected into PBS (200 µL) to remove loosely adhered planktonic cells, and added to a sterile 96 well plate. To the wells, PBS or test agent dissolved in PBS (100 µL) was added and incubated with shaking for 24 h. The biofilm (100 µL) was removed from the well plate, added to 900 µL sterile MilliQ water, and disrupted with pipetting and vortexing. Disrupted biofilms were serially diluted and spiral plated on TSA. Viability was assessed with colony counting. The minimum biofilm eradication concentration (MBEC) was defined as the lowest concentration of test agent required to reduce viability by 5-log (i.e., 10^8 to 10^3 CFU/mL).
(§3) The biofilm was then removed from its 96 well plate, added to a new 96 well plate containing tobramycin dissolved in PBS (100 µL), and incubated for 20 h. The biofilm was disrupted in 900 µL sterile MilliQ water with pipetting and vortexing, serially diluted, and spiral plated on TSA. Viability was assessed with colony counting.

AR 229 biofilm = assay: Biofilm pretreatment with nitric oxide; type: cell-based, P. aeruginosa; settings: tobramycin 2 µg/mL, NO-pretreatment 4 h
Method: as §2, §3

AR 230 biofilm = assay: Biofilm pretreatment with nitric oxide; type: cell-based, P. aeruginosa; settings: tobramycin 64 µg/mL, NO-pretreatment 4 h
Method: as §2, §3

AR 237 biofilm = assay: Biofilm pretreatment with nitric oxide; type: cell-based, P. aeruginosa; settings: tobramycin 1 µg/mL, NO-pretreatment 4 h
Method: as §2, §3

AR 230 = assay: Nitric oxide pretreatment with planktonic bacteria; type: cell-based, P. aeruginosa; settings: AR 230, antibiotic 2000 µg/mL, NO-pretreatment 25% MIC 4 h
Method: as §1

AR 239 = assay: Nitric oxide pretreatment with planktonic bacteria; type: cell-based, P. aeruginosa; settings: AR 239, antibiotic 2000 µg/mL, NO-pretreatment 25% MIC 4 h
Method: as §1

PA 237 = assay: 24 h combination time kill assay; type: cell-based, P. aeruginosa; settings: PA 237, COS/NO and tobramycin, 24 h time kill
Method: (§4) Time-kill assays were performed over 24 h in order to quantitatively probe the effect of each antibiotic-NO combination as a function of time [Belley, A. et al. Assessment by time-kill methodology of the synergistic effects of oritavancin in combination with other antimicrobial agents against Staphylococcus aureus. Antimicrob. Agents Chemother. 52, 3820-3822 (2008)]. […] Aliquots were sampled at 0, 3, 6, and 24 h, serially diluted, and logarithmically plated on TSA plates using an Eddy Jet spiral plater (IUL; Farmingdale, NY). Bacterial viability was assessed by counting the number of colonies formed with a Flash & Go colony counter (IUL; Farmingdale, NY).

PA 229 = assay: 24 h combination time kill assay; type: cell-based, P. aeruginosa; settings: PA 229, COS/NO and tobramycin, 24 h time kill
Method: as §4

PA 239 = assay: 24 h combination time kill assay; type: cell-based, P. aeruginosa; settings: PA 239 (tobramycin-resistant), COS/NO and tobramycin, 24 h time kill
Method: as §4

PA 230 = assay: 24 h combination time kill assay; type: cell-based, P. aeruginosa; settings: PA 230 (tobramycin-resistant), COS/NO and tobramycin, 24 h time kill
Method: as §4

PAK = assay: Serial passaging resistance assay; type: cell-based, Pseudomonas aeruginosa
Method: Bacteria at a final concentration of 10^6 CFU/mL in TSB were incubated with serial dilutions of COS/NO and/or tobramycin for 24 h. Growth was assessed by measuring absorbance at 600 nm. The wells that had the highest concentration of test agent and an OD600 corresponding to more than 10^8 CFU/mL were diluted to 10^6 cfu/mL in TSB and incubated with fresh solutions of COS/NO or tobramycin for 24 h. A single passage was defined as one exposure, incubation, and subsequent dilution. Bacteria were passaged for up to 70 days.

AR 542 = assay: Nitric oxide pretreatment with planktonic bacteria; type: cell-based, Klebsiella pneumoniae
Method: as §1

[1] = system: P. aeruginosa strain K (PAK); assay: Checkerboard assay of antibiotic combinations with COS/NO; type: cell-based, Pseudomonas aeruginosa; settings: antibiotic in combination with COS/NO, 24 h
Method: Frozen stocks of bacteria were reconstituted in TSB (3 mL) and cultured overnight. The overnight cultures of bacteria (3 mL) were inoculated into fresh TSB (30 mL) and grown to 10^8 CFU/mL. […] Inhibition was assessed with the resazurin assay and the minimum inhibitory concentration (MIC) was defined as the lowest concentration of antibacterial agent required to prevent the reduction of resazurin (i.e., color change from blue to pink).
Mol. Pharm. 7, 2289-2296 (2010)]. Briefly, bacteria at a final concentration of 10^6 CFU/mL were incubated with an array of antimicrobial combinations in TSB for 24 h at 37° C. The highest concentration for each antimicrobial tested was 2 × MIC. […] The fractional […] concentration index (ΣFIC) was calculated using Equation 1, reported by Elion et al. [Elion, G. B., Singer, S. & Hitchings, G. H. Antagonists of Nucleic Acid Derivatives: VIII. Synergism in combinations of biochemically related antimetabolites. […] Checkerboard assays were conducted in at least duplicate for each bacterial strain and for each drug combination.
Characterization of the combinations was performed using the following criteria based on ΣFIC values: < 0.25 is highly synergistic; ≤ 0.5 is synergistic; ≤ 1 is additive; ≤ 4 is indifferent; > 4 is antagonistic.

[2] = antibiotic 4000 µg/mL, NO-pretreatment 25% MIC 4 h
[3] = AR 542, antibiotic 500 µg/mL, NO-pretreatment 25% MIC 4 h

NC[C@H]1O[C@H](O[C@H]2[C@H](O)[C@@H](O[C@H]3O[C@H](CO)[C@@H](O)[C@H](N)[C@H]3O)[C@H](N)C[C@@H]2N)[C@H](N)C[C@@H]1O [Tobramycin]
tobramycin-susceptibility with the addition of NO (ATCC MRSA; NO-pretreatment): significant improvement | Classification (ATCC MRSA; [2]): Synergistic | Log Difference in bacteria viability with vs without NO-pretreatment (ATCC MRSA; [2]): 4.09 log | Classification (AR 239 biofilm): Synergistic | Log Difference in biofilm viability with vs without NO-pretreatment (AR 239 biofilm): 4.90 log | Classification (AR 229 biofilm): Synergistic | Log Difference in biofilm viability with vs without NO-pretreatment (AR 229 biofilm): 4.39 log | Classification (AR 230 biofilm): Synergistic | Log Difference in biofilm viability with vs without NO-pretreatment (AR 230 biofilm): 5.15 log | Classification (AR 237 biofilm): Synergistic | Log Difference in biofilm viability with vs without NO-pretreatment (AR 237 biofilm): 4.85 log | Classification (AR 230): Synergistic | Log Difference in bacteria viability with vs without NO-pretreatment (AR 230): 3.54 log | Classification (AR 239): Synergistic | Log Difference in bacteria viability with vs without NO-pretreatment (AR 239): 2.27 log | interaction of tobramycin-NO combination (PA 237): synergistically | interaction of tobramycin-NO combination (PA 229): synergistically | interaction of tobramycin-NO combination (PA 239): indifferent | interaction of tobramycin-NO combination (PA 230): indifferent | development of tobramycin-resistance (PAK; P. aeruginosa, concomitant delivery with COS/NO at 25% of its MIC): slowing or prevention | change of tobramycin MIC on parallel exposures (PAK; P. aeruginosa, tobramycin alone, serial passages): increases | MICn (PAK; PAK, after n = 10 passages): 16 µg/mL | MIC (PAK; Pseudomonas aeruginosa, read-out: MIC0): 2 µg/mL (≈ 4.28 µM) | Classification (AR 542; [3]): Synergistic | Log Difference in bacteria viability with vs without NO-pretreatment (AR 542; [3]): 2.29 log | tobramycin-susceptibility with the addition of NO (AR 542; K. pneumoniae AR 542, NO-pretreatment): significant improvement | Classification (ΣFIC) [1]: Additive | ΣFIC (median fractional inhibitory concentration index) [1]: 0.625
